Results: patent publication US4192867A, “2-Deoxyfortimicin A, 4-N-alkyl and 4-N-acyl-2-deoxyfortimicin B derivatives” (Abbott Laboratories, priority 1977, dated 1980)
Counter-ions that a name gives are not always drawn. Like-named read-outs stand apart in the source and are kept apart here.

How the values were obtained:
E. coli 76-2 = assay: In vitro antibiotic activity, two-fold dilution test (Mueller-Hinton agar); assay type: cell-based
Description: (§1) The in vitro antibiotic activities are determined by a two-fold dilution test using Mueller-Hinton agar, 10 ml per Petri plate. The inoculum of approximately 1×10^5 of the indicated test organism is delivered by the Steer's replicator. The test is incubated at 37° C. for 24 hours. Fortimicin A tetrahydrochloride and fortimicin A disulfate are used as the control antibiotics. The minimum inhibitory concentrations (MIC), listed in Table I, are expressed in mcg/ml.

E. coli BL 3676 (Res) = assay: as above; assay type: cell-based; settings: for MIC: Escherichia coli, read-out: Minimum inhibitory concentration (MIC)
Description: as §1

E. coli Juhl = assay: as above; assay type: cell-based; settings: for MIC: Escherichia coli, read-out: Minimum inhibitory concentration (MIC)
Description: as §1

[1] = tested on: Enterobacter aerogenes 13048; assay: as above; assay type: cell-based; settings: for MIC: read-out: Minimum inhibitory concentration (MIC)
Description: as §1

Kleb. pneumoniae 10031 = assay: as above; assay type: cell-based
Description: as §1

Kleb. pneumoniae KY 4262 = assay: as above; assay type: cell-based; settings: for MIC: Klebsiella pneumoniae
Description: as §1

[2] = tested on: Proteus mirabilis Fin. #9; assay: as above; assay type: cell-based; settings: for MIC: read-out: Minimum inhibitory concentration (MIC)
Description: as §1

Proteus rettigeri U6333 = assay: as above; assay type: cell-based
Description: as §1

Proteus vulgaris JJ = assay: as above; assay type: cell-based; settings: for MIC: read-out: Minimum inhibitory concentration (MIC)
Description: as §1

Providencia 1577 = assay: as above; assay type: cell-based; settings: for MIC: read-out: Minimum inhibitory concentration (MIC)
Description: as §1

[3] = tested on: Pseudo. aeruginosa BMH #10; assay: as above; assay type: cell-based; settings: for MIC: Pseudomonas aeruginosa, read-out: Minimum inhibitory concentration (MIC)
Description: as §1

[4] = tested on: Pseudo. aeruginosa KY 8512; assay: as above; assay type: cell-based; settings: for MIC: Pseudomonas aeruginosa
Description: as §1

[5] = tested on: Pseudo. aeruginosa KY 8516; assay: as above; assay type: cell-based; settings: for MIC: Pseudomonas aeruginosa
Description: as §1

Psuedo. aeruginosa 209 = assay: as above; assay type: cell-based; settings: for MIC: read-out: Minimum inhibitory concentration (MIC)
Description: as §1

Psuedo. aeruginosa 27853 = assay: as above; assay type: cell-based
Description: as §1

Sal. typhimurium Ed. #9 = assay: as above; assay type: cell-based; settings: for MIC: Salmonella enterica, read-out: Minimum inhibitory concentration (MIC)
Description: as §1

Serratis marcescens 4003 = assay: as above; assay type: cell-based
Description: as §1

Shigella sonnei 9290 = assay: as above; assay type: cell-based; settings: 37° C.; for Minimum inhibitory concentration (MIC): 24 hours
Description: as §1

Staph. aureus Smith = assay: as above; assay type: cell-based; settings: for MIC: Staphylococcus aureus, read-out: Minimum inhibitory concentration (MIC)
Description: as §1

Strep. faecalis 10541 = assay: as above; assay type: cell-based; settings: for MIC: read-out: Minimum inhibitory concentration (MIC)
Description: as §1

Escherichia coli (Juhl) = assay: Acute mouse protection test; assay type: in vivo, Escherichia coli; female, swiss albino mice; settings: ip, 168 h, read-out: Effective Dose50 (ED50)
Description: (§2) The acute mouse protection test is conducted on 10 mice with each of 5 levels of dug. Mouse mortality is used to calculate a ED50 value, i.e., dose of drug required to protect 50% of the test animals.
(§3) The acute mouse protection test is conducted on female, swiss albino mice, 18-20 grams in weight. The mice are injected intraperitoneally with an 18 hour culture of the indicated test organism diluted sufficiently to provide the desired LD50 value. To check potency of the infection a titration of the indicated test organism is carried out in control animals. The treatment group of animals is dosed with the test fortimicin at one and five hours post-infection and observed for seven days. The ED50 values are calculated using the mortality data collected.

[6] = tested on: Klebsiella pneumoniae (4508); assay: Acute mouse protection test; assay type: in vivo, Klebsiella pneumoniae; female, swiss albino mice; settings: ip, 168 h, read-out: Effective Dose50 (ED50)
Description: as §2, §3

[7] = tested on: Proteus mirabilis (Fin 9); assay: Acute mouse protection test; assay type: in vivo, Proteus mirabilis; female, swiss albino mice; settings: ip, 168 h, read-out: Effective Dose50 (ED50)
Description: as §2, §3

[8] = E. coli BL 3676 (Res), Mueller-Hinton agar, 37° C., 24 hours
[9] = E. coli Juhl, Mueller-Hinton agar, 37° C., 24 hours
[10] = Proteus mirabilis Fin. #9, Mueller-Hinton agar, 37° C., 24 hours
[11] = Proteus vulgaris JJ, Mueller-Hinton agar, 37° C., 24 hours
[12] = Providencia 1577, Mueller-Hinton agar, 37° C., 24 hours
[13] = Pseudo. aeruginosa BMH #10, Mueller-Hinton agar, 37° C., 24 hours
[14] = Psuedo. aeruginosa 209, Mueller-Hinton agar, 37° C., 24 hours
[15] = Sal. typhimurium Ed. #9, Mueller-Hinton agar, 37° C., 24 hours
[16] = Staph. aureus Smith, Mueller-Hinton agar, 37° C., 24 hours

## COC1C(O)C(N)C(OC2OC(C(C)N)CCC2N)C(O)C1N(C)C(=O)CN (stereo not drawn) [Fortimicin A tetrahydrochloride]
E. coli 76-2; E. coli 76-2, 37° C., 24 hours
  Minimum inhibitory concentration (MIC): 3.1 µg/mL
E. coli BL 3676 (Res); [8]
  Minimum inhibitory concentration (MIC): 25 µg/mL
E. coli Juhl; [9]
  Minimum inhibitory concentration (MIC): 6.2 µg/mL
[1]; Enterobacter aerogenes 13048, Mueller-Hinton agar, 37° C., 24 hours
  Minimum inhibitory concentration (MIC): 3.1 µg/mL
Kleb. pneumoniae 10031; Kleb. pneumoniae 10031, 37° C., 24 hours
  Minimum inhibitory concentration (MIC): 1.56 µg/mL
Kleb. pneumoniae KY 4262; Kleb. pneumoniae KY 4262, 37° C., 24 hours
  Minimum inhibitory concentration (MIC): 3.1 µg/mL
[2]; [10]
  Minimum inhibitory concentration (MIC): 6.2 µg/mL
Proteus rettigeri U6333; Proteus rettigeri U6333, 37° C., 24 hours
  Minimum inhibitory concentration (MIC): 25 µg/mL
Proteus vulgaris JJ; [11]
  Minimum inhibitory concentration (MIC): 6.2 µg/mL
Providencia 1577; [12]
  Minimum inhibitory concentration (MIC): 3.1 µg/mL
[3]; [13]
  Minimum inhibitory concentration (MIC): 0.78 µg/mL
[4]; Pseudo. aeruginosa KY 8512, 37° C., 24 hours
  Minimum inhibitory concentration (MIC): 25 µg/mL
[5]; Pseudo. aeruginosa KY 8516, 37° C., 24 hours
  Minimum inhibitory concentration (MIC): 100 µg/mL
Psuedo. aeruginosa 209; [14]
  Minimum inhibitory concentration (MIC): > 100 µg/mL
Psuedo. aeruginosa 27853; Psuedo. aeruginosa 27853, 37° C., 24 hours
  Minimum inhibitory concentration (MIC): 25 µg/mL
Sal. typhimurium Ed. #9; [15]
  Minimum inhibitory concentration (MIC): 1.56 µg/mL
Serratis marcescens 4003; Serratis marcescens 4003, 37° C., 24 hours
  Minimum inhibitory concentration (MIC): 3.1 µg/mL
Shigella sonnei 9290
  Minimum inhibitory concentration (MIC): 12.5 µg/mL
Staph. aureus Smith; [16]
  Minimum inhibitory concentration (MIC): 0.78 µg/mL
Strep. faecalis 10541; Strep. faecalis 10541, Mueller-Hinton agar, 37° C., 24 hours
  Minimum inhibitory concentration (MIC): 50 µg/mL

## COC1C(O)C(N)C(OC2OC(C(C)N)CCC2N)C(O)C1N(C)C(=O)CN (stereo not drawn) [Fortimicin A disulfate, fortimicin A disulfate]
E. coli 76-2; Escherichia coli, 762, 24 h, read-out: Minimum inhibitory concentration (MIC), E. coli 76-2, 37° C.
  MIC: 6.2 µg/mL
E. coli BL 3676 (Res); 24 h
  MIC: 25 µg/mL
E. coli Juhl; 24 h
  MIC: 6.2 µg/mL
[1]; Klebsiella aerogenes, 13048, 24 h
  MIC: 3.1 µg/mL
Kleb. pneumoniae 10031; Klebsiella pneumoniae, 10031, 24 h, read-out: Minimum inhibitory concentration (MIC), Kleb. pneumoniae 10031, 37° C.
  MIC: 3.1 µg/mL
Kleb. pneumoniae KY 4262; KY4262, 24 h, read-out: Minimum inhibitory concentration (MIC), Kleb. pneumoniae KY 4262, 37° C.
  MIC: 6.2 µg/mL
[2]; Proteus mirabilis, 24 h
  MIC: 6.2 µg/mL
Proteus rettigeri U6333; 24 h, read-out: Minimum inhibitory concentration (MIC), Proteus rettigeri U6333, 37° C.
  MIC: 12.5 µg/mL
Proteus vulgaris JJ; Proteus vulgaris, 24 h
  MIC: 6.2 µg/mL
Providencia 1577; Providencia, 1577, 24 h
  MIC: 3.1 µg/mL
[3]; 24 h
  MIC: 0.78 µg/mL
[4]; KY8512, 24 h, read-out: Minimum inhibitory concentration (MIC), Pseudo. aeruginosa KY 8512, 37° C.
  MIC: 12.5 µg/mL
[5]; KY8516, 24 h, read-out: Minimum inhibitory concentration (MIC), Pseudo. aeruginosa KY 8516, 37° C.
  MIC: 50 µg/mL
Psuedo. aeruginosa 209; 24 h
  MIC: > 100 µg/mL
Psuedo. aeruginosa 27853; 24 h, read-out: Minimum inhibitory concentration (MIC), Psuedo. aeruginosa 27853, 37° C.
  MIC: 12.5 µg/mL
Sal. typhimurium Ed. #9; TYPHIMURIUM, 24 h
  MIC: 1.56 µg/mL
Serratis marcescens 4003; 24 h, read-out: Minimum inhibitory concentration (MIC), Serratis marcescens 4003, 37° C.
  MIC: 1.56 µg/mL
Shigella sonnei 9290
  Minimum inhibitory concentration (MIC): 6.2 µg/mL
Staph. aureus Smith; 24 h
  MIC: 0.78 µg/mL
Strep. faecalis 10541; Enterococcus faecalis, 10541, 24 h
  MIC: 50 µg/mL
Escherichia coli (Juhl); Escherichia coli
  ED50: 4.6 mg/kg
[6]; Klebsiella pneumoniae
  ED50: 2.5 mg/kg
[7]; Proteus mirabilis
  ED50: 7.5 mg/kg

## COC1CC(N)C(OC2OC(C(C)N)CCC2N)C(O)C1N(C)C(=O)CN (stereo not drawn) [2-deoxyfortimicin A tetrahydrochloride, 2-Deoxyfortimicin A Tetrahydrochloride]
E. coli 76-2; Escherichia coli, 762, E. coli 76-2, 37° C., 24 hours, read-out: Minimum inhibitory concentration (MIC)
  MIC: 3.1 µg/mL
E. coli BL 3676 (Res); [8]
  MIC: 25 µg/mL
E. coli Juhl; [9]
  MIC: 6.2 µg/mL
[1]; Klebsiella aerogenes, Enterobacter aerogenes 13048, Mueller-Hinton agar, 37° C., 24 hours
  MIC: 3.1 µg/mL
Kleb. pneumoniae 10031; Klebsiella pneumoniae, Kleb. pneumoniae 10031, 37° C., 24 hours, read-out: Minimum inhibitory concentration (MIC)
  MIC: 1.56 µg/mL
Kleb. pneumoniae KY 4262; KY4262, Kleb. pneumoniae KY 4262, 37° C., 24 hours, read-out: Minimum inhibitory concentration (MIC)
  MIC: 6.2 µg/mL
[2]; [10]
  MIC: 6.2 µg/mL
Proteus rettigeri U6333; Proteus rettigeri U6333, 37° C., 24 hours, read-out: Minimum inhibitory concentration (MIC)
  MIC: 25 µg/mL
Proteus vulgaris JJ; [11]
  MIC: 3.1 µg/mL
Providencia 1577; [12]
  MIC: 3.1 µg/mL
[3]; [13]
  MIC: 0.78 µg/mL
[4]; KY8512, Pseudo. aeruginosa KY 8512, 37° C., 24 hours, read-out: Minimum inhibitory concentration (MIC)
  MIC: 12.5 µg/mL
[5]; KY8516, Pseudo. aeruginosa KY 8516, 37° C., 24 hours, read-out: Minimum inhibitory concentration (MIC)
  MIC: 50 µg/mL
Psuedo. aeruginosa 209; [14]
  MIC: > 100 µg/mL
Psuedo. aeruginosa 27853; Psuedo. aeruginosa 27853, 37° C., 24 hours, read-out: Minimum inhibitory concentration (MIC)
  MIC: 12.5 µg/mL
Sal. typhimurium Ed. #9; [15]
  MIC: 1.56 µg/mL
Serratis marcescens 4003; Serratis marcescens 4003, 37° C., 24 hours, read-out: Minimum inhibitory concentration (MIC)
  MIC: 3.1 µg/mL
Shigella sonnei 9290; Shigella sonnei, 9290, 24 h, read-out: Minimum inhibitory concentration (MIC)
  MIC: 6.2 µg/mL
Staph. aureus Smith; [16]
  MIC: 0.78 µg/mL
Strep. faecalis 10541; Enterococcus faecalis, Strep. faecalis 10541, Mueller-Hinton agar, 37° C., 24 hours
  MIC: 50 µg/mL
Escherichia coli (Juhl); Escherichia coli (Juhl) infected intraperitoneally, dosed one and five hours post-infection, observed seven days
  ED50: 4.7 mg/kg
[6]; Klebsiella pneumoniae (4508) infected intraperitoneally, dosed one and five hours post-infection, observed seven days
  ED50: 1.5 mg/kg
[7]; Proteus mirabilis (Fin 9) infected intraperitoneally, dosed one and five hours post-infection, observed seven days
  ED50: 4.7 mg/kg
